These results are taken from patent US20150050210A1 (priority 2012, published 2015).

Data set [1] can be described thus: Compatibility studies of bendamustine with excipients (1:1 binary mixtures). The format is physicochemical. The note with it: for Total impurities %: open container, one month. As for the experimental part:
Compatibility studies of bendamustine with different excipients used in hot melt extrusion process were realised with incubation of 1:1 (w/w) binary mixtures of these excipients with bendamustine at 40° C. 75% RH in an open container for one month.

Data set [2] is described as follows: Rat studies to determine oral bioavailability of bendamustine. The note with it: male, Sprague-Dawley, in vivo; for AUC(0-inf): read-out: mean AUC0-∞. On the procedure: Rat studies were carried out with the extrudate to determine the oral bioavailability of bendamustine. For this purpose 3 mg/kg bendamustine was applied parenterally to 3 animals and samples were taken at 0, 0.083, 0.25, 0.5, 1, 2, 4, 8 hours and analyzed with a validated HPLC/MS method. Furthermore extrudates of the invention were applied orally to 9 rats with a bendamustine concentration of 10.8 mg/kg. Samples were taken at 0, 0.25, 0.5, 1, 2, 4, 6, 8 hours and analyzed with a validated HPLC/MS method

The conditions of data set [3]: mice; cited from earlier work.
A short description of data set [4]: Temperature stability studies of bendamustine. Format: physicochemical. On the procedure: Temperature stability studies of bendamustine were conducted with treatment of bendamustine at given temperatures for 10 minutes.

Where two headings read alike, the source gives them in different places.

For `Cn1c(CCCC(=O)O)nc2cc(N(CCCl)CCCl)ccc21` [bendamustine, 4-[5-[Bis(2-chloroethyl)amino]-1-methylbenzimidazol-2-yl]butanoic acid], the Total impurities % in data set [1] (1:1 (w/w) mixture with Ascorbic acid, 40° C. 75% RH) is 0.121%; in data set [1] (1:1 (w/w) mixture with Citric acid, 40° C. 75% RH), 0.098%; in data set [1] (1:1 (w/w) mixture with Ditert butyl methyl phenol, 40° C. 75% RH) it was 0.258%; in data set [1] (1:1 (w/w) mixture with Eudragit ® EPO, 40° C. 75% RH), 0.154%; in data set [1] (1:1 (w/w) mixture with Kollidone VA64, 40° C. 75% RH), 0.091%; in data set [1] (1:1 (w/w) mixture with PEG 1000, 40° C. 75% RH), 0.326%. Moreover, the Total impurities % is on record as 0.229% in data set [1] (1:1 (w/w) mixture with PEG 2000, 40° C. 75% RH); 0.124% in data set [1] (1:1 (w/w) mixture with Plasdone K12, 40° C. 75% RH); 0.118% in data set [1] (1:1 (w/w) mixture with Soluplus, 40° C. 75% RH); 0.101% in data set [1] (1:1 (w/w) mixture with Vit E acetate, 40° C. 75% RH). Moreover, the Compatibility with excipients result in data set [1] (with large amounts of PEG 2000, PEG 1000 and Diter butyl methyl phenol, 40° C. 75% RH) is given as “incompatibility”. Also, the bioavailability in data set [2] (iv, 3 mg/kg) turned out to be 100%; in data set [2] (po, 10 mg/kg), 33%. For the same molecule, the AUC(0-inf) in data set [2] (iv, 3 mg/kg) turned out to be 675 ng·h/mL; in data set [2] (po, 10 mg/kg), 742 ng·h/mL. Further, in data set [3], the oral bioavailability is on record as 40%. In addition, the Assay % in data set [4] (70 ° C. for 10 minutes) is on record as 101.75%; in data set [4] (100 ° C. for 10 minutes) it was 99.216%; in data set [4] (120 ° C. for 10 minutes), 97.732%. In addition, the “Total Impurity %” value in data set [4] (70 ° C. for 10 minutes) was 0.7%; in data set [4] (100 ° C. for 10 minutes), 0.8%; in data set [4] (120 ° C. for 10 minutes) it was 1.3%.
